The target of the assay is T1, Vitamin D receptor (VDR) (Homo sapiens, UniProt P11473).
T1 sequence (P11473 118-427 limits assumed): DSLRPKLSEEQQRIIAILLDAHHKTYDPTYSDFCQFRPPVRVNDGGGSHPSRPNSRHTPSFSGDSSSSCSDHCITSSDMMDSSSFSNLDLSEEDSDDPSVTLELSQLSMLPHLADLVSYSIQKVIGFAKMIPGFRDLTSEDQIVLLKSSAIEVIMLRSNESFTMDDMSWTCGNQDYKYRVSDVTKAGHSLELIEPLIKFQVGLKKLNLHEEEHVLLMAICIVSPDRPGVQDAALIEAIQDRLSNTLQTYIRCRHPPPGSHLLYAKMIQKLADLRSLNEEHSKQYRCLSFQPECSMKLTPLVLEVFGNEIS
Put plainly: SPR. The format is binding.

Experimental findings from paper PMC11395219 (Molecular Cancer, 2024) are described below.

By Kd is commonly meant the equilibrium constant for the complex coming apart.

Each structure is given as a SMILES string.

In turn, `O=c1cc(-c2ccc(O)cc2)oc2c([C@@H]3O[C@H](CO)[C@@H](O)[C@H](O)[C@H]3O)c(O)cc(O)c12` [vitexin] showed a Kd of 34.7 µM. This counts as double-digit micromolar.
